How the values were obtained:
[1] = target: Coagulation factor VII/tissue factor (Homo sapiens, UniProt P08709); assay: Binding affinity to factor7a/TF complex; type: protein-complex assay
[2] = Mean residence time in iv dosed rat; type: ADME, organism-based; details: in vivo
[3] = Bioavailability in sc dosed rat; type: ADME, organism-based; details: in vivo
[4] = Plasma clearance in iv dosed rat

Sequence of Coagulation factor VII/tissue factor (P08709 61-212 limits assumed): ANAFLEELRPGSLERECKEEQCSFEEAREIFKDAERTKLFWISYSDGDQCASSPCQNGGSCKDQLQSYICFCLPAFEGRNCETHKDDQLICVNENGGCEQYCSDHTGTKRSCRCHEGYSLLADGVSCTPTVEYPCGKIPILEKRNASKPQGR
Sequence of Coagulation factor VII/tissue factor (P08709 213-466 limits assumed): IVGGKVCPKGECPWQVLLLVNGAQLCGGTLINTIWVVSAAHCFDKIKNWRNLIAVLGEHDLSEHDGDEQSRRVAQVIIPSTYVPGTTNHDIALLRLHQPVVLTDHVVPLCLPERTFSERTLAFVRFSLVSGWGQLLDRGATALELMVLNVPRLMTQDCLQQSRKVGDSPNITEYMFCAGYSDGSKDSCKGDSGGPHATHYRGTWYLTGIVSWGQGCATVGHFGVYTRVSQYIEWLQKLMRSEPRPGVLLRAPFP
Sequence of Coagulation factor VII/tissue factor (P13726 33-295 partner limits assumed): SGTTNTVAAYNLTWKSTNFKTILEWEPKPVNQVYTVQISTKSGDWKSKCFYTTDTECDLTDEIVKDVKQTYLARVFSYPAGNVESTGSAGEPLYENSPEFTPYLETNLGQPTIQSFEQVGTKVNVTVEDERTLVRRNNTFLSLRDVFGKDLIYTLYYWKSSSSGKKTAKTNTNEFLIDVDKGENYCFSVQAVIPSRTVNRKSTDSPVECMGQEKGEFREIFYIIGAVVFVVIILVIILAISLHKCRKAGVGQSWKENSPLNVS

Row | Compound | Ki [1] | MRT [2] | bioavailability [3] | clearance [4]
1 | N=C(N)c1ccc2[nH]c(-c3cc(CC(=O)O)cc(-c4cccc([N+](=O)[O-])c4)c3O)cc2c1 | – | < 1 h | – | –
2 | N=C(N)c1ccc2nc(-c3cc(C(CCC(=O)O)C(=O)O)cc(-c4cccc([N+](=O)[O-])c4)c3O)[nH]c2c1 (centres undefined) | 17 nM | 5 h | – | –
3 | N=C(N)c1ccc2nc(-c3cc(C(CC(=O)O)CC(=O)O)cc(-c4cccc([N+](=O)[O-])c4)c3O)[nH]c2c1 | 36 nM | – | – | –
4 | N=C(N)c1ccc2nc(-c3cc(CC(C(=O)O)C(=O)O)cc(-c4cccc([N+](=O)[O-])c4)c3O)[nH]c2c1 | 21 nM | < 1 h | – | –
5 | N=C(N)c1ccc2nc(-c3cc(CC(=O)O)cc(-c4cccc([N+](=O)[O-])c4)c3O)[nH]c2c1 | 15 nM | < 1 h | – | –
6 | N=C(N)c1ccc2[nH]c(-c3cc(C(CC(=O)O)C(=O)O)cc(-c4cccc([N+](=O)[O-])c4)c3O)nc2c1 (centres undefined) | 22 nM | > 24 h | – | 0.04 mL/min/kg

Continued, values first:

Row | Ki [1] | MRT [2] | bioavailability [3] | clearance [4] | Compound
7 | 1 nM | > 24 h | – | – | N=C(N)c1ccc2[nH]c(-c3cc(C(CC(=O)O)C(=O)O)cc(-c4cccc([N+](=O)[O-])c4)c3O)cc2c1 (centres undefined)
8 | 13 nM | 1.5 h | – | – | N=C(N)c1ccc2[nH]c(-c3cc(C(CC(=O)O)CC(=O)O)cc(-c4cccc([N+](=O)[O-])c4)c3O)cc2c1
9 | 4 nM | 9 h | > 90% | – | N=C(N)c1ccc2[nH]c(-c3cc(C(CC(=O)O)C(=O)O)cc(-c4cc(F)ccc4O)c3O)nc2c1 (centres undefined)
10 | 4 nM | < 1 h | – | 2.6 mL/min/kg | N=C(N)c1ccc2[nH]c(-c3cc(CC(CC(=O)O)C(=O)O)cc(-c4cc(F)ccc4O)c3O)nc2c1 (centres undefined)
11 | 2 nM | < 1 h | – | 8.1 mL/min/kg | N=C(N)c1ccc2[nH]c(-c3cc(CC(=O)O)cc(-c4cc(F)ccc4O)c3O)nc2c1
